USRE49351E1, “Cytoprotective agent” (Biogen MA Inc., priority 2009, dated 2023)
Where a name gives a salt, the structure may show the parent alone.

Tests used:
[1] = modified H-ORAC (mH-ORAC) assay; assay type: biochemical; conditions: acetone solution, acetone final concentration 1.25%
Protocol: (§1) To study the free radical scavenging activity of a triprenyl phenol compound, the following H-ORAC (hydrophilic oxygen radical absorbance capacity) assay, and modified H-ORAC (mH-ORAC) assay were conducted.
(§2) SMTP compounds evaluated by H-ORAC were used respectively in a form of a sodium salt aqueous solution, and the compounds evaluated by mH-ORAC were used respectively in a form of an acetone solution.
(§3) In H-ORAC a test compound was diluted appropriately with a buffer solution (75 mM phosphate buffer solution, pH 7.4) and used for measurement. In mH-ORAC a test compound was diluted appropriately by a 50% (v/v) acetone solution, prepared by diluting an acetone solution with water, to prepare a solution of 40-fold the final concentration. […] As for the reference material Trolox, 500 μM/buffer solution was diluted appropriately with a buffer solution.
(§4) To a 96-well microplate (transparent, flat bottom, black wall) 50 μL of a test compound solution or a Trolox solution was placed, and additionally 100 μL of a fluorescein 140 nM/buffer solution as a fluorescent substance was added (final concentration 70 nM), followed by incubation at 37° C. for […].
(§5) As a free radical generator, 50 μL of a 48 mM/buffer solution of 2,2′-azobis(amidinopropane)dihydrochloride was added (final concentration 12 mM), and fluorescence intensity at fluorescence wavelength of 535 nm with excitation wavelength of 485 nm was measured at 2 min intervals for 90 min. The calibration curve was prepared between the Trolox final concentrations of 5 to 15 μM. The measurement was conducted by changing the concentration with n=3, and plotted on a diagram with time on the abscissa and the fluorescence intensity on the ordinate. Therewith evaluation was made using the value obtained by reducing the area under the curve for the blank from the area under the curve for the sample. The result was expressed as an equivalent to Trolox.

[2] = tested on: Mongolian gerbil cerebral infarction model; test: Mongolian gerbil cerebral infarction model (acetic acid-induced thrombus): infarction area percentage and neurological symptom; assay type: in vivo; conditions: mean ± SE, n=6; for Infarction area: evaluated 24 h; for Neurological scores: score 0-4 at 24 h
Text: Anesthesia was induced to a male Mongolian gerbil (body weight 55 to 65 g) by inhalation of 5% isoflurane (trade name Escain, Mylan Inc.), and maintained with 1 to 1.5% isoflurane. The Mongolian gerbil was fixed in a dorsal position, and the neck was dehaired and then disinfected with 70% ethanol. After median incision of the neck, the right common carotid artery was detached, clamped to block the blood flow temporarily, and coated with 100% acetic acid by 30 reciprocating motions so as to produce a thrombus. The blood vessel was reopened after 10 min of the blockage of the blood flow to transfer the thrombus by the blood stream into the brain to make it ischemic and generate cerebral infarction. The operating field was closed with an instant adhesive (trade name Aron Alpha (Krazy Glue), Toagosei Co., Ltd.) and disinfected with 70% ethanol.
Twenty four hours after the initiation of the operation neurological symptoms were observed as an indicator for cerebral infarction. Many types of neurological symptoms specific to cerebral infarction, such as extension of a hindlimb or circling to one direction, have been reported. Applying a modified evaluation method of the method proposed by Longa, et al. (Stroke 1989; 20:84-91) postoperative neurological symptoms were evaluated as per: no deficit, 0; extension of limb, 1; circling to one direction, 2; incline posture, 3; diminished motion, 4.
With respect to statistical analysis, for multiple comparisons was conducted firstly one-way analysis of variance (ANOVA) and then a Bonferroni test was conducted, if significant difference is detected. Significant difference was positively recognized with significance level 5% (P<0.05). All the results are expressed in mean±standard error.
After the evaluation of neurological symptoms according to the above method, the animal was decapitated under anesthesia with isoflurane. The cranial bone was exfoliated of skin and opened, and, after scission of optic nerve, the brain was extirpated and dipped in a physiological saline solution to remove attached body hairs, etc. The extirpated brain was placed in a brain matrix (RBM-1000C, ASI Instruments) to carry out coronal slicing from the frontal pole at thickness of 2 mm. The slices were dipped in 2% 2,3,5-triphenyl-2H-tetrazolium chloride (TTC), and incubated for staining at 37° C. for 30 min in a CO2 incubator. The colorless TTC is reduced by hydrogen liberated by the action of dehydrogenase contained in a normal cell converting to dark red colored water-insoluble 1,3,5-triphenylformazan (TPF), so that the normal cell is stained. Unstained area (white area) was defined as an infarction area. Meanwhile, the corpus callosum, which is commissural fibers connecting the right and left cerebral hemispheres, is not stained and is white, and therefore image processing for the analyses as described below was conducted excluding the corpus callosum.
After staining images of the brain slices were taken by a digital camera under a stereoscopic microscope. For analysis of the infarction area percentage, an image analysis software Image J (Version 1.4) was used. Full, excluding the corpus callosum, images of the taken 2nd, 3rd, and 4th brain slice images were converted to grayscale. From the grayscale images a histogram for the whole brain as the object scope was obtained showing in the ordinate the frequency of occurrence (frequency) at certain brightness, and showing in the abscissa the brightness (0 to 255). The sum from 0 to 255 was defined as the area size of the whole brain, and the sum from 160 to 219 was defined as the area size of the infarction area. Then the infarction area percentage was determined according to the following formula using the total area size of the infarction areas and the total area size of the whole brain, of the 3 brain slice images. Statistical analysis was conducted as above. […]

[3] = H-ORAC (hydrophilic oxygen radical absorbance capacity) assay; assay type: biochemical; conditions: sodium salt aqueous solution, phosphate buffer pH 7.4
Protocol: as §1, §2, §3, §4, §5

[4] = 1 mg/kg i.v., administration initiated 1 hr after ischemia
[5] = 3 mg/kg i.v., administration initiated 0 hr after ischemia
[6] = 3 mg/kg i.v., administration initiated 1 hr after ischemia
[7] = 3 mg/kg i.v., administration initiated 3 hr after ischemia
[8] = 10 mg/kg i.v., administration initiated 1 hr after ischemia
[9] = 1 mg/kg i.v., administration initiated 0 hr after ischemia

For `CC(C)=CCC/C(C)=C/CC[C@]1(C)Oc2c(c(O)cc3c2CNC3=O)C[C@@H]1O` [SMTP-0], the “free radical scavenging activity, Trolox equivalent” value (“free radical scavenging activity” for short) [1] was 7.76 ± 0.36 molTE/mol.
With `CC1=NN(c2ccccc2)C(=O)C1` [edaravone] the Infarction area [2, 4] was 12.8 ± 2.87%, the Neurological scores [2, 4] was 3.17 ± 0.17 and the Infarction area [2, 5] was 9.95 ± 3.22%. It also gave a Neurological scores [2, 5] of 1.50 ± 0.67, an Infarction area [2, 6] of 8.29 ± 1.61 % and a Neurological scores [2, 6] of 1.50 ± 0.67. It also gave an Infarction area [2, 7] of 12.3 ± 5.59%, a Neurological scores [2, 7] of 2.50 ± 0.56 and an Infarction area [2, 8] of 9.29 ± 2.17%. For the same compound, the Neurological scores [2, 8] was 1.83 ± 0.65.
In the case of `Clc1ccccc1CN1CCc2sccc2C1` [ticlopidine HCl], the Infarction area [2, 9] is reported as 8.83 ± 1.73%, the Neurological scores [2, 9] is reported as 2.33 ± 0.42 and the Infarction area [2, 4] is reported as 13.1 ± 3.89%. For the same compound, the Neurological scores [2, 4] was 2.67 ± 0.56, the Infarction area [2, 8] was 9.84 ± 1.81% and the Neurological scores [2, 8] was 2.33 ± 0.42.
In the case of `CC(C)=CCC/C(C)=C/CC[C@]1(C)Oc2c(c(O)cc3c2CN(CCO)C3=O)C[C@@H]1O` [SMTP-1], the “free radical scavenging activity” value [1] is reported as 4.35 ± 0.55 molTE/mol.
`CC1CNc2c(cccc2S(=O)(=O)N[C@@H](CCCNC(=N)N)C(=O)N2CC[C@@H](C)C[C@@H]2C(=O)O)C1` (stereo partly drawn) [argatroban] showed an Infarction area [2, 9] of 10.0 ± 2.66%, a Neurological scores [2, 9] of 2.33 ± 0.61 and an Infarction area [2, 4] of 12.1 ± 2.46%. For the same compound, the Neurological scores [2, 4] was 2.50 ± 0.50, the Infarction area [2, 8] was 11.5 ± 2.57% and the Neurological scores [2, 8] was 2.50 ± 0.56.
In the case of `CC(C)=CCCC(C)=CCCC1(C)Oc2c(c(O)cc3c2CN(CCCCC(C(=O)O)N2Cc4c(cc(O)c5c4OC(C)(CCC=C(C)CCC=C(C)C)C(O)C5)C2=O)C3=O)CC1O` (stereo not drawn) [SMTP-8], the “free radical scavenging activity” value [1] is reported as 1.69 ± 0.14 molTE/mol.
In the case of `CC(C)=CCC/C(C)=C/CCC1(C)Oc2c(c(O)cc3c2CN(C(Cc2ccccc2)C(=O)O)C3=O)CC1O` (stereo not drawn) [SMTP-4], the “free radical scavenging activity” value [3] is reported as 1.79 ± 0.02 molTE/mol.
With `CSCC[C@@H](C(=O)O)N1Cc2c(cc(O)c3c2O[C@@](C)(CCC=C(C)CCC=C(C)C)[C@@H](O)C3)C1=O` [SMTP-13] the “free radical scavenging activity” value [3] was 3.07 ± 0.51 molTE/mol.
For `CC(C)=CCC/C(C)=C/CCC1(C)Oc2c(c(O)cc3c2CN([C@H](CC(C)C)C(=O)O)C3=O)CC1O` (stereo partly drawn) [SMTP-5D], the “free radical scavenging activity” value [3] was 1.71 ± 0.20 molTE/mol.
With `CC(C)=CCCC(C)=CCC[C@]1(C)Oc2c(c(O)cc3c2CN(c2ccc(S(=O)(=O)O)cc2)C3=O)C[C@@H]1O` [SMTP-42] the “free radical scavenging activity” value [3] was 3.28 ± 0.25 molTE/mol.
With `CC(C)=CCCC(C)=CCC[C@]1(C)Oc2c(c(O)cc3c2CN([C@@H](Cc2ccc(O)cc2)C(=O)O)C3=O)C[C@@H]1O` [SMTP-14] the “free radical scavenging activity” value [3] was 4.43 ± 0.49 molTE/mol.
